“Also recorded” adds a separate entry of the source.

Test [1] in a line: H2O2 formation with hematoporphyrin IX sensitization and visible light (sensitization and quenching assays). It is filed as biochemical. To be noted: D2O or NaN3 (40 mM). As for the experimental part: Sensitization and Quenching Assays. A solution of 31127 (100 μl of horse IgG, 6.7 μM) in PBS (pH 7.4, 4% dimethylformamide) and hematoporphyrin IX (40 μM) was placed in proximity to a strip light. Hydrogen peroxide concentration was determined as described herein. […]
Assay for H2O2 production as a function of the efficiency of ^1O2 formation via ^3O2 sensitization with hematoporphyrin IX: The assay is a modification of a procedure developed by H. Sakai and co-workers, Proc. SPE-Int. Soc. Opt. Eng., 2371, 264 (1995). In brief, the horse poly-IgG (1 mg/mL) in PBS (50 mM, pH 7.4) and hematoporphyrin IX (40 μM) is irradiated with white light from a transilluminator. Aliquots are removed (50 μL) and the concentration of H2O2 and 3-aminophthalic acid measured simultaneously. H2O2 concentration was measured by the amplex red assay (Zhou et al., Anal. Biochem., 253, 162 (1997)). 3-Aminophthalic acid concentration was measured by reversed-phase HPLC on a Hitachi D4000 series machine with an Adsorbosphere-C18 column, a UV detector at 254 nm, and a mobile phase of acetonitrile/water (0.1% TFA) of 18:82 at 1 mL/min (retention time of luminol=7.4 min and 3-aminophthalic acid 3.5 min). The concentrations of luminol and 3-aminophthalic acid were determined by comparison of peak height and area to control samples. […]

For test [2], the system named is E. coli. Kind of test: Bactericidal assay, E. coli (strain not singled out or both serotypes). It is filed as cell-based. As for the experimental part:
In a typical experiment, a culture of E. coli (in log phase growth, OD600=0.2-0.3) was repeatedly pelleted (3×3,500 rpm) and resuspended in PBS (pH 7.4). The PBS suspended cells were then added to glass vials and cooled to 4° C. Hematoporphyrin IX (40 μM) and antibody (20 μM) were added and the vials were either placed on a light box (visible light, 2.8 mW cm^−2) or in the dark at 4° C. and incubated for 1 h. Viability was determined by recovery of colony forming units (CFUs) on agar plates. Each experiment was performed at least in duplicate.
In a typical experiment, a culture of E. coli (in log phase growth, OD600=0.2-0.3) was repeatedly washed in PBS by pelleting (3×3,500 rpm) the cells and resuspending them in PBS (pH 7.4). The PBS suspended cells were then added to glass vials and cooled to 4° C. Hematoporphyrin IX (40 μM) and antibody (20 μM) were added and the vials were either placed on a light box (visible light, 2.8 mW cm^−2) or in the dark at 4° C. and incubated for 1 h. Viability was determined by recovery of colony forming units (CFUs) on agar plates. Each experiment was performed at least in duplicate.

Test [3] is described as follows: Production of hydrogen peroxide by immunoglobulins and proteins under UV irradiation (Amplex Red assay). To be noted: for ability of non-immunoglobulin proteins to reduce ^1O2 / generate H2O2: irradiation in PBS. It is filed as biochemical. The protocol:
All assays were carried out in PBS (10 mM phosphate/160 mM sodium chloride, pH 7.4). Commercial protein solution samples were dialyzed into PBS as necessary. Amplex Red hydrogen peroxide assay kits (A-12212) were obtained from Molecular Probes.
Antibody/Protein Irradiation. Unless otherwise stated, the assay solution (100 μl, 6.7 μM protein in PBS, pH 7.4) was added to a glass vial, sealed with a screw-cap, and irradiated with either UV (312 nm, […] Fischer-Biotech transilluminator) or visible light.
Quantitative Assay for Hydrogen Peroxide. An aliquot (20 μl) from the protein solution was removed and added into a well of a 96-well microtiter plate (Costar) containing reaction buffer (80 μL). Working solution (100 μl/400 μM Amplex Red reagent ½ units/ml horseradish peroxidase) was then added, and the plate was incubated in the dark for 30 min. The fluorescence of the well components was then measured using a CytoFluor Multi well Plate Reader (Series 4000, PerSeptive Biosystems, Framingham, Mass.; Ex/Em: 530/580 nm). The hydrogen peroxide concentration was determined using a standard curve. All experiments were run in duplicate, and the rate is quoted as the mean of at least two measurements.

Test [4] is described as follows: Consumption of hydrogen peroxide by catalase (peroxide stick test). Format: biochemical. Particulars: 1 min after addition of catalase. As for the experimental part:
Consumption of Hydroen Peroxide by Catalase. A solution of EP2-19G12 (100 μl of mouse IgG, 20 μM in PBS, pH 7.4) was irradiated with UV light for 30 min, after which time the concentration of hydrogen peroxide was determined by stick test (EM Quant Peroxide Test Sticks) to be 2 mg/liter.

For `[2H]O[2H]` [Clone D2O, D2O], the “rate of formation of H2O2 by horse IgG with HP (40 μM) in visible light in the presence of additive” value in test [1] is reported as “increased”. Turning to `O=C(O)CN(CCN(CC(=O)O)CC(=O)O)CC(=O)O` [EDTA], in test [2] (2 mM), the “effect of presence of EDTA on the survival of bacteria” value was “no effect”. Regarding `[N-]=[N+]=[N-].[Na+]` [NaN3], the “rate of formation of H2O2 by horse IgG with HP (40 μM) in visible light in the presence of additive” value in test [1] is “reduced”. For the molecule `N[C@@H](Cc1c[nH]c2ccccc12)C(=O)O` [Trp, tryptophan], in test [3] (tryptophan 20 μM, FIG. 11A), the “H2O2 production during near-UV irradiation” value is recorded as “ca. 0.5 mole equivalents”. With `CC1=C(CCC(=O)O)c2cc3[nH]c(cc4nc(cc5[nH]c(cc1n2)c(C)c5C(C)O)C(C)=C4C(C)O)c(C)c3CCC(=O)O` (stereo not shown) [hematoporphyrin IX], the bactericidal activity result in test [2] (HPIX 40 μM, white light 1 h, 4 °C) is listed as “negligible bactericidal activity”. Consider chick ovalbumin: chick-egg ovalbumin, for which, in test [3], the “ability of non-immunoglobulin proteins to reduce ^1O2 / generate H2O2” value was “one of the most efficient proteins at reducing”. Still for that read-out and setting: under superoxide dismutase: enzyme, Sigma stands “the same as irradiation of PBS alone; also recorded: do not reduce; also recorded: does not reside”. As for “β-galactosidase: non-immunoglobulin protein, Sigma”, the “H2O2 generated by photo-production” value in test [3] (from its 39 Trp residues, FIG. 8A) is 5.9 mol eq.

B1: catalase: enzyme that converts H2O2 to water and molecular oxygen (protein, UniProt P00432 2-527, looked up)
Catalase: ADNRDPASDQMKHWKEQRAAQKPDVLTTGGGNPVGDKLNSLTVGPRGPLLVQDVVFTDEMAHFDRERIPERVVHAKGAGAFGYFEVTHDITRYSKAKVFEHIGKRTPIAVRFSTVAGESGSADTVRDPRGFAVKFYTEDGNWDLVGNNTPIFFIRDALLFPSFIHSQKRNPQTHLKDPDMVWDFWSLRPESLHQVSFLFSDRGIPDGHRHMNGYGSHTFKLVNANGEAVYCKFHYKTDQGIKNLSVEDAARLAHEDPDYGLRDLFNAIATGNYPSWTLYIQVMTFSEAEIFPFNPFDLTKVWPHGDYPLIPVGKLVLNRNPVNYFAEVEQLAFDPSNMPPGIEPSPDKMLQGRLFAYPDTHRHRLGPNYLQIPVNCPYRARVANYQRDGPMCMMDNQGGAPNYYPNSFSAPEHQPSALEHRTHFSGDVQRFNSANDDNVTQVRTFYLKVLNEEQRKRLCENIAGHLKDAQLFIQKKAVKNFSDVHPEYGSRIQALLDKYNEEKPKNAVHTYVQHGSHLSAREKANL
As for B1, in test [2] (catalase 13 mU/mL), the “extent of protection against antigen-specific antibodies” value is reported as “varied over a wide range” and the “protection against the bactericidal activity of non-specific antibodies” value was “complete protection; also recorded: completely attenuated”. The “concentration of H2O2 after catalase” value in test [4] was 0 mg/L.

B2: RNase A: non-immunoglobulin protein, Amersham Pharmacia (protein, UniProt P61823 27-150, looked up)
Ribonuclease pancreatic: KETAAAKFERQHMDSSTSAASSSNYCNQMMKSRNLTKDRCKPVNTFVHESLADVQAVCSQKNVACKNGQTNCYQSYSTMSITDCRETGSSKYPNCAYKTTQANKHIIVACEGNPYVPVHFDASV
In the case of B2, the results for the “ability of non-immunoglobulin proteins to reduce ^1O2 / generate H2O2” value in test [3] and in test [3] (listed as RNaseA) were “do not reduce” and “does not reside”, respectively.

The values above are taken from patent US20060292076A1, “Antimicrobial mediated ozone generation” (priority 2002, published 2006).
